Results taken from US11046699B2, “Pyrazolo-pyrimidin-amino-cycloalkyl compounds and their therapeutic uses” (RAPT THERAPEUTICS, INC., priority 2018, dated 2021).

target: GCN2 (Homo sapiens, UniProt Q9P2K8); test: GCN2 enzymatic endpoint assay: phosphorylation of GFP-eIF2α measured by TR-FRET (Lanthascreen); format: biochemical; conditions: GCN2 biochemical IC50; 4 nM GCN2, 2 μM ATP, 80 nM GFP-eIF2α, 90 min RT; read-out: GCN2 activity
Procedure, shortened: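 Endpoint GCN2 reaction with low ATP (2 μM) and 80 nM GFP-eIF2α, room temperature, 90 minutes. Detection mix with EDTA and Tb-labelled antibody; 520 nm/495 nm emission ratio reported.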

GCN2, sequence (Q9P2K8 whole entry): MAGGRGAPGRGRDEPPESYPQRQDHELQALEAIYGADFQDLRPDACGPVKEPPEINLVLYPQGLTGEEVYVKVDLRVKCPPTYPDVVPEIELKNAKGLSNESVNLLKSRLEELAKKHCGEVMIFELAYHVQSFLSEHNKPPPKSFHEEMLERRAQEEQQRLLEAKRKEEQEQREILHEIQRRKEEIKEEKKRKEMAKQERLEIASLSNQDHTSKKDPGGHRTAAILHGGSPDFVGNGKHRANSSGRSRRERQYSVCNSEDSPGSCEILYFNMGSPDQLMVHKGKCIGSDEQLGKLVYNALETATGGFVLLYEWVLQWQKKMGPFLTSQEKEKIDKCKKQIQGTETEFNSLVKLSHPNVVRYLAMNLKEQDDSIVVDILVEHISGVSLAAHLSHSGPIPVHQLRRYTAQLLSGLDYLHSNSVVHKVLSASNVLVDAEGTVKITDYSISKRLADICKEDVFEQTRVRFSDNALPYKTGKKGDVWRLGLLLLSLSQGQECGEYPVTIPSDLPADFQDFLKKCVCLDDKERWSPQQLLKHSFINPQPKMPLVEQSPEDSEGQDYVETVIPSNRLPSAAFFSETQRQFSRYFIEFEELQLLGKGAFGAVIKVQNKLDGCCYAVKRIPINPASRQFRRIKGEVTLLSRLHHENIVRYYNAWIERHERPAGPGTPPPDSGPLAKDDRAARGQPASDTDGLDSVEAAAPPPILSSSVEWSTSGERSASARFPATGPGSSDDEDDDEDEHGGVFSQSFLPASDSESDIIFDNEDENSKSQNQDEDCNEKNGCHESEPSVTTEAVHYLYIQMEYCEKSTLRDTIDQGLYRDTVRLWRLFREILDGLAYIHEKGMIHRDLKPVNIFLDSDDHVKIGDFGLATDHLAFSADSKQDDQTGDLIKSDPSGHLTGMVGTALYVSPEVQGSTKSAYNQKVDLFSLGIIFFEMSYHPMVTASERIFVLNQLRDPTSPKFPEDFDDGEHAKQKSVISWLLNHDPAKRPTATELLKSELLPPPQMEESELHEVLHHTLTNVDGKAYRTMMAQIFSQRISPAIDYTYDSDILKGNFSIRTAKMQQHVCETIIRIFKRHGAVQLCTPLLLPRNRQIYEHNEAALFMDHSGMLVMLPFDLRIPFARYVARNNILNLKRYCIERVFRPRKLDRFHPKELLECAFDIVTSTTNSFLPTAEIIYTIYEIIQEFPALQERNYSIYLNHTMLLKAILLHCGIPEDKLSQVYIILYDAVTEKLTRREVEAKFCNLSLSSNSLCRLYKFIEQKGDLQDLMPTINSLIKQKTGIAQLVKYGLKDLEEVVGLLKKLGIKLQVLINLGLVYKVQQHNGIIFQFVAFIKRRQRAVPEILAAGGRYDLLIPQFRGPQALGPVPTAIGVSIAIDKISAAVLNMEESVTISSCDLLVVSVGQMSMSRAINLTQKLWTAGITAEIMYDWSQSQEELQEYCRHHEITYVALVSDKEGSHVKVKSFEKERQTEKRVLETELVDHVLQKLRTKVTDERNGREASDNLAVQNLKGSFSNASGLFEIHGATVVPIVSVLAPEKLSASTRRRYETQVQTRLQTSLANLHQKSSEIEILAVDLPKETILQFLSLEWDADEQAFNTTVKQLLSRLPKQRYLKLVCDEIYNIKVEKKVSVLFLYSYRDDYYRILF

`Cc1nnc(-c2ccc(-n3nc(Br)c4cnc(N[C@@H]5CC[C@@H](C(=O)N6CCNC(=O)C6)C5)nc43)cc2)o1` [Example 22, 4-((1R,3R)-3-((3-bromo-1-(4-(5-methyl-1,3,4-oxadiazol-2-yl)phenyl)-1H-pyrazolo[3,4-d]pyrimidin-6-yl)amino)cyclopentane-1-carbonyl)piperazin-2-one] and `NC(=O)[C@@H]1CC[C@@H](Nc2ncc3c(Br)nn(-c4cc(F)c5ncccc5c4)c3n2)C1` [Example 12, (1R,3R)-3-((3-bromo-1-(8-fluoroquinolin-6-yl)-1H-pyrazolo[3,4-d]pyrimidin-6-yl)amino)cyclopentane-1-carboxamide] fall in the same range of IC50: 25 to 200 nM for the first, 25 to 200 nM for the second.

In the case of `COCCNC(=O)[C@@H]1CC[C@@H](Nc2ncc3c(Cl)nn(-c4ccc5ncccc5c4)c3n2)C1` [Example 14, (1R,3R)-3-((3-chloro-1-(quinolin-6-yl)-1H-pyrazolo[3,4-d]pyrimidin-6-yl)amino)-N-(2-methoxyethyl)cyclopentane-1-carboxamide], the IC50 is reported as less than 25 nM.

same assay, conditions: tested as described in Example 77; compound and/or hydrochloride, dihydrochloride or trifluoroacetic acid salt; read-out: IC 50 Activity

Compared with `CNC(=O)[C@]1(OC)CC[C@@H](Nc2ncc3c(Br)nn(-c4cc(F)c5ncccc5c4)c3n2)C1` [(1S,3R)-3-[[3-bromo-1-(8-fluoro-6-quinolyl)pyrazolo[3,4-d]pyrimidin-6-yl]amino]-1-methoxy-N-methyl-cyclopentanecarboxamide], `O=C1OCC[C@]12CC[C@@H](Nc1ncc3c(Br)nn(-c4cc(F)c5ncccc5c4)c3n1)C2` [(5R,7R)-7-((3-bromo-1-(8-fluoroquinolin-6-yl)-1H-pyrazolo[3,4-d]pyrimidin-6-yl)amino)-2-oxaspiro[4.4]nonan-1-one] is lower in IC50: 25 to 200 nM for the first, less than 25 nM for the second. The second is the more potent here.

First: O=C1CC(CNC(=O)[C@@H]2CC[C@@H](Nc3ncc4c(Br)nn(-c5ccc6ncccc6c5)c4n3)C2)CCN1 (stereo partly drawn) [(1R,3R)-3-((3-bromo-1-(quinolin-6-yl)-1H-pyrazolo[3,4-d]pyrimidin-6-yl)amino)-N-((2-oxopiperidin-4-yl)methyl)cyclopentane-1-carboxamide]
Second: CN(C)C(=O)N1CC[C@@H](Nc2ncc3c(Br)nn(-c4ccc5ncccc5c4)c3n2)C1 [(R)-3-((3-bromo-1-(quinolin-6-yl)-1H-pyrazolo [3,4-d]pyrimidin-6-yl)amino)-N,N-dimethyl-pyrrolidine-1-carboxamide]
The IC50 of the first is lower: 25 to 200 nM for the first, 500 to 1000 nM for the second. The first is the more potent here.

`Cc1nnc(-c2ccc(-n3nc(Br)c4cnc(NC5CC(P(C)(C)=O)C5)nc43)cc2CCS(C)(=O)=O)s1` (stereo not shown) [3-bromo-N-(3-dimethylphosphorylcyclo-butyl)-1-[3-(2-methylsulfonylethyl)-4-(5-methyl-1,3,4-thiadiazol-2-yl)phenyl] pyrazolo[3,4-d]pyrimidin-6-amine] and `Cc1nnc(-c2ccc(-n3nc(Br)c4cnc(NC5CC(S(C)(=O)=O)C5)nc43)cc2)s1` (stereo not shown) [3-bromo-N-(3-methylsulfonylcyclobutyl)-1-[4-(5-methyl-1,3,4-thiadiazol-2-yl)phenyl] pyrazolo[3,4-d]pyrimidin-6-amine] fall in the same range of IC50: 25 to 200 nM for the first, 25 to 200 nM for the second.

First: CCC(=O)N1CCN(C(=O)[C@@H]2CC[C@@H](Nc3ncc4c(Br)nn(-c5cc(F)c6ncccc6c5)c4n3)C2)C1 [1-[3-[(1R,3R)-3-[[3-bromo-1-(8-fluoro-6-quinolyl)pyrazolo[3,4-d]pyrimidin-6-yl]amino]cyclopentanecarbonyl]imidazolidin-1-yl]propan-1-one]
Second: CC1(C(=O)O)CN(C(=O)[C@@H]2CC[C@@H](Nc3ncc4c(Br)nn(-c5cc(F)c6ncccc6c5)c4n3)C2)C1 [1-((1R,3R)-3-((3-bromo-1-(8-fluoroquinolin-6-yl)-1H-pyrazolo[3,4-d]pyrimidin-6-yl)amino)cyclopentane-1-carbonyl)-3-methylazetidine-3-carboxylic acid]
The IC50 of the first is lower: less than 25 nM for the first, 25 to 200 nM for the second. The first is the more potent here.

`CNC(=O)[C@]1(C)CC[C@@H](Nc2ncc3c(Br)nn(-c4ccc(-c5nnc(C(C)(C)O)o5)cc4)c3n2)C1` [(1R,3R)-3-[[3-bromo-1-[4-[5-(1-hydroxy-1-methyl-ethyl)-1,3,4-oxadiazol-2-yl]phenyl]pyrazolo[3,4-d]pyrimidin-6-yl]amino]-N,1-dimethyl-cyclopentanecarboxamide] and `CNC(=O)C1(C)CC[C@@H](Nc2ncc3c(Br)nn(-c4ccc(-c5noc(C)n5)cc4)c3n2)C1` (stereo partly drawn) [(3R)-3-[[3-bromo-1-[4-(5-methyl-1,2,4-oxadiazol-3-yl)phenyl]pyrazolo[3,4-d]pyrimidin-6-yl]amino]-N,1-dimethyl-cyclopentanecarboxamide] fall in the same range of IC50: 25 to 200 nM for the first, 25 to 200 nM for the second.

`CNC(=O)[C@]1(C)CC[C@@H](Nc2ncc3c(Br)nn(-c4ccc5[nH]c(=O)ncc5c4)c3n2)C1` [(1R,3R)-3-[[3-bromo-1-(2-oxo-1H-quinazolin-6-yl)pyrazolo[3,4-d]pyrimidin-6-yl]amino]-N,1-dimethyl-cyclopentane-carboxamide; 2,2,2-trifluoroacetic acid] and `CNC(=O)[C@]1(C)CC[C@@H](Nc2ncc3c(Br)nn(-c4cnc5c(CCN)cccc5c4)c3n2)C1` [(1R,3R)-3-[[1-[8-(2-aminoethyl)-3-quinolyl]-3-bromo-pyrazolo[3,4-d]pyrimidin-6-yl]amino]-N,1-dimethyl-cyclopentane-carboxamide] fall in the same range of IC50: 25 to 200 nM for the first, 25 to 200 nM for the second.

`CNC(=O)[C@@H]1CC[C@@H](Nc2ncc3c(Br)nn(-c4cc(F)c(-c5cccnc5)c(C#N)c4)c3n2)C1` [(1R,3R)-3-[[3-bromo-1-[3-cyano-5-fluoro-4-(3-pyridyl)phenyl]pyrazolo[3,4-d]pyrimidin-6-yl]amino]-N-methyl-cyclopentane-carboxamide] and `CNC(=O)[C@@H]1CC[C@@H](Nc2ncc3c(Br)nn(-c4ccc5c(C)nn(C)c5c4)c3n2)C1` [(1R,3R)-3-[[3-bromo-1-(1,3-dimethylindazol-6-yl)pyrazolo[3,4-d]pyrimidin-6-yl]amino]-N-methyl-cyclopentanecarboxamide] fall in the same range of IC50: 25 to 200 nM for the first, 25 to 200 nM for the second.

Compared with `CS(=O)(=O)C1CC[C@@H](Nc2ncc3c(Br)nn(-c4cc(CCN)c5nccnc5c4)c3n2)C1` (stereo partly drawn) [1-[8-(2-aminoethyl)quinoxalin-6-yl]-3-bromo-N-[(1R)-3-methylsulfonylcyclo-pentyl]pyrazolo[3,4-d]pyrimidin-6-amine], `Cc1ccc2cc(-n3nc(Br)c4cnc(N[C@@H]5CC[C@@H](P(C)(C)=O)C5)nc43)cc(CCO)c2n1` [2-[6-[3-bromo-6-[[(1R,3R)-3-dimethyl-phosphorylcyclopentyl]amino]pyrazolo [3,4-d]pyrimidin-1-yl]-2-methyl-8-quinolyl]ethanol] is higher in IC50: less than 25 nM for the first, 25 to 200 nM for the second. The first is the more potent here.

`CNC(=O)[C@]1(C)CC[C@@H](Nc2ncc3c(Br)nn(-c4cc(Cl)cc(C(=O)N(C)C5CNC5)c4)c3n2)C1` [N-(azetidin-3-yl)-3-[3-bromo-6-[[(1R,3R)-3-methyl-3-(methylcarbamoyl)cyclopentyl]amino]pyrazolo[3,4-d]pyrimidin-1-yl]-5-chloro-N-methyl-benzamide] and `CNC(=O)[C@]1(C)CC[C@@H](Nc2ncc3c(Br)nn(-c4cc(C#N)cc(CO)c4)c3n2)C1` [(1R,3R)-3-[[3-bromo-1-[3-cyano-5-(hydroxymethyl)phenyl]pyrazolo[3,4-d]pyrimidin-6-yl]amino]-N,1-dimethyl-cyclopentanecarboxamide] fall in the same range of IC50: 25 to 200 nM for the first, 25 to 200 nM for the second.

Compared with `Cc1nnc(-c2ccc(-n3nc(Br)c4cnc(N[C@@H]5CC[C@@](C)(CO)C5)nc43)cc2CCC#N)s1` [3-[5-[3-bromo-6-[[(1R,3R)-3-(hydroxy-methyl)-3-methyl-cyclopentyl]amino]pyrazolo[3,4-d]pyrimidin-1-yl]-2-(5-methyl-1,3,4-thiadiazol-2-yl)phenyl] propanenitrile], `CNC(=O)[C@]1(C)CC[C@@H](Nc2ncc3c(Br)nn(-c4ccc(-c5nnc(C)s5)c(F)c4)c3n2)C1` is lower in IC50: 25 to 200 nM for the first, less than 25 nM for the second. The second is the more potent here.

`CNC(=O)[C@]1(C)CC[C@@H](Nc2ncc3c(Br)nn(-c4ccc(-c5ncco5)c(CNCC(F)F)c4)c3n2)C1` [(1R,3R)-3-[[3-bromo-1-[3-[(2,2-difluoroethylamino)methyl]-4-oxazol-2-yl-phenyl]pyrazolo[3,4-d]pyrimidin-6-yl]amino]-N,1-dimethyl-cyclopentane-carboxamide] and `CNC(=O)[C@]1(C)CC[C@@H](Nc2ncc3c(Br)nn(-c4ccc5c(c4)CCC(=O)N5CC(F)F)c3n2)C1` [(1R,3R)-3-[[3-bromo-1-[1-(2,2-difluoro-ethyl)-2-oxo-3,4-dihydroquinolin-6-yl]pyrazolo[3,4-d]pyrimidin-6-yl]amino]-N,1-dimethyl-cyclopentanecarboxamide] fall in the same range of IC50: 25 to 200 nM for the first, 25 to 200 nM for the second.

`CNC(=O)[C@@]1([C@H](C)C#N)CC[C@@H](Nc2ncc3c(Br)nn(-c4ccc(-c5nnc(C)s5)cc4)c3n2)C1` [(1S,3R)-3-[[3-bromo-1-[4-(5-methyl-1,3,4-thiadiazol-2-yl)phenyl]pyrazolo [3,4-d]pyrimidin-6-yl]amino]-1-[(1S)-1-cyanoethyl]-N-methyl-cyclopentane-carboxamide] and `COC(=O)N1CC[C@@H](Nc2ncc3c(Br)nn(-c4ccc(-c5nnc(C)s5)cc4)c3n2)C1` fall in the same range of IC50: 25 to 200 nM for the first, 25 to 200 nM for the second.

First: O=C([C@@H]1CC[C@@H](Nc2ncc3c(Br)nn(-c4cc(F)c5ncccc5c4)c3n2)C1)N1CCN2C(=O)COCC2C1 (stereo partly drawn) [8-((1R,3R)-3-((3-bromo-1-(8-fluoroquinolin-6-yl)-1H-pyrazolo[3,4-d]pyrimidin-6-yl)amino)cyclopentane-1-carbonyl)hexahydropyrazino [2,1-c][1,4]oxazin-4(3H)-one]
Second: N#Cc1cc(-n2nc(Br)c3cnc(N[C@@H]4CC[C@@H](C(=O)N5CCS(=N)(=O)CC5)C4)nc32)cc2cccnc12
The IC50 of the first is higher: 25 to 200 nM for the first, less than 25 nM for the second. The second is the more potent here.

`CNC(=O)[C@]1(C)CC[C@@H](Nc2ncc3c(Br)nn(-c4ccc(C(=O)c5ccno5)cc4)c3n2)C1` [(1R,3R)-3-[[3-bromo-1-[4-(isoxazole-5-carbonyl)phenyl]pyrazolo[3,4-d]pyrimidin-6-yl]amino]-N,1-dimethyl-cyclopentanecarboxamide] and `CNC(=O)[C@]1(C)CC[C@@H](Nc2ncc3c(Br)nn(-c4ccc5c(c4)CCN(C(=O)C4CN(C)C4)C5)c3n2)C1` [(1R,3R)-3-[[3-bromo-1-[2-(1-methylazetidine-3-carbonyl)-3,4-dihydro-1H-isoquinolin-6-yl]pyrazolo[3,4-d]pyrimidin-6-yl]amino]-N,1-dimethyl-cyclopentanecarboxamide] fall in the same range of IC50: 25 to 200 nM for the first, 25 to 200 nM for the second.
